The values that follow come from US20260327191A1, “GSK3a INHIBITORS AND METHODS OF USE THEREOF” (Blueprint Medicines Corporation, priority 2023, published 2026).

For experiment [1], the target named is T1, human GSK3α (Homo sapiens, UniProt P49840).
T1 construct: Full length human GSK3α or GSK3B expressed as N-terminal GST fusion proteins; GST (N); purchased Carna Biosciences (Japan); host or cells: baculovirus host
The experiment can be described thus: In vitro enzymatic activity assay, GSK3α. The class given is biochemical. The following applies: 1.0 mM ATP, 1.0 μM peptide substrate, 120 min, 25° C, read-out: Enzyme GSK3α (IC50). The method, then: (§1) Full length human GSK3α or GSK3B expressed as N-terminal GST fusion proteins in baculovirus host were purchased from Carna Biosciences (Japan). The kinase was pre-incubated with ATP (adenosine-5′-triphosphate) for 45 min, then incubated with tested compounds for another 45 min in assay buffer that contains 100 mM HEPES (N-2-hydroxyethylpiperazine-N′-2-ethanesulfonic acid), pH 7.5, 10 mM MgCl2, 1.0 mM DTT, and 0.015% Briji-35. […] Percent inhibition was plotted against compound concentration to generate 10-point dose response curve with 3-fold serial dilution starting from 10 μM. IC50 value was determined from the 4-parameter logistic curve fitting.

Experiment [2] addresses T2, GSK3A (Homo sapiens, UniProt P49840).
T2 construct: expressed in transfected cells
The experiment can be described thus: NanoBRET cellular target engagement assay, Nanoluc-GSK3A in HEK293 cells. The experiment is classed as cell-based. The settings on record: NanoBRET GSK3α IC50, HEK293 cells, tracer K-8, 2 hours, 37° C. The method, then:
(§2) In the assay, HEK293 cells stably expressing either Nanoluc-GSK3A or Nanoluc-GSK3B were maintained in culture media and seeded, using a multidrop dispenser, at a density of 5×10^3 cells per well in 384-well white plates with 100 ng/ml doxycycline (Sigma) overnight.
(§3) Compound was first diluted in DMSO to generate a 9-point serial dilution then diluted to 10× final concentration in Opti-MEM™ (Gibco). After overnight incubation, cell medium was aspirated from the seeded cells using a microplate automatic washer, then 27 μL of pre-warmed Opti-MEM™ with kinase tracer (K-8) and 3 μL of Opti-MEM™ diluted DMSO or compounds were added per well. Plates were protected from light, mixed in an orbital shaker for 3 min at RT and incubated at 37° C., 5% CO2 in a humidified incubator for 2 hours. After acclimation at RT for 15 min, 15 μL of 3× complete NanoBRET™ Nano-Glo Substrate/Inhibitor (Promega) was added per well. Plates were mixed in an orbital shaker for 3 min at RT and incubated for an additional 30 min. Donor emission at 460 nm and acceptor emission at 647 nm were measured in EnVision multilabel plate reader (Perkin Elmer).
A general note: Bioluminescence resonance energy transfer reports proximity on the nanometre scale.

Experiment [3] deals with T3, GSK3B (Homo sapiens, UniProt P49841). The experiment can be described thus: NanoBRET cellular target engagement assay, Nanoluc-GSK3B in HEK293 cells. The experiment is classed as cell-based. Also noted: expressed in transfected cells. The settings on record: NanoBRET GSK3β IC50, HEK293 cells, tracer K-8, 2 hours, 37° C. The method, then:
as §2, §3

The target of experiment [4] is T3, GSK3B. Briefly: In vitro enzymatic activity assay, GSK3β. The experiment is classed as biochemical. The settings on record: 1.0 mM ATP, 1.0 μM peptide substrate, 120 min, 25° C, read-out: Enzyme GSK3β (IC50). On the set-up: Full length human GSK3α or GSK3B expressed as N-terminal GST fusion proteins; GST (N); purchased Carna Biosciences (Japan); host or cells: baculovirus host. Here is the method:
as §1

T3 sequence (P49841 whole entry): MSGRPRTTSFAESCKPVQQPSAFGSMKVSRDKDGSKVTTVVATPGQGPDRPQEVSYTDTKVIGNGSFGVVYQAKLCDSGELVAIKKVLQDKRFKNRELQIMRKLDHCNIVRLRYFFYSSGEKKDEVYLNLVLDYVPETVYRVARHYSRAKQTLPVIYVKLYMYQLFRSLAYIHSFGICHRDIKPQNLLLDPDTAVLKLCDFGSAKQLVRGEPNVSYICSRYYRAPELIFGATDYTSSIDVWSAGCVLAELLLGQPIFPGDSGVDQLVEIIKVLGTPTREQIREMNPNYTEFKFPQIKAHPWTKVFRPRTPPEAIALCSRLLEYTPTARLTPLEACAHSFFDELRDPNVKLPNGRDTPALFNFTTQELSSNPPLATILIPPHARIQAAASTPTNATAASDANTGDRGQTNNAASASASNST
T2 sequence (P49840 whole entry): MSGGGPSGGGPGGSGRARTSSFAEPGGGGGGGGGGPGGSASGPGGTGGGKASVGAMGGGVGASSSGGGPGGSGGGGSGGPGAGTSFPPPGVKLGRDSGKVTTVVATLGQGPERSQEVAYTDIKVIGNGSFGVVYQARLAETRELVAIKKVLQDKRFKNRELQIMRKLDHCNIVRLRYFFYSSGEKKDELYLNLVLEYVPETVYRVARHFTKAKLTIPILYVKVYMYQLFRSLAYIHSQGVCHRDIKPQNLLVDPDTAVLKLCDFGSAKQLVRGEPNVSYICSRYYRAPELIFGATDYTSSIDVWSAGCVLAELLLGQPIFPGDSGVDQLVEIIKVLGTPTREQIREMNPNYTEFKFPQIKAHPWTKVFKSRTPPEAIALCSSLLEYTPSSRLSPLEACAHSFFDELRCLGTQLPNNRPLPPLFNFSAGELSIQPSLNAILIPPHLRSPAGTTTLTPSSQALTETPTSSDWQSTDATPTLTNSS
T1 sequence (P49840 whole entry, the tested form may be a part): as the sequence (P49840 whole entry) above

As usually defined, the IC50 is the concentration needed to halve the response being measured. Turning to `Cc1cc(C#N)cc(Cl)c1-n1cnc(N)c(C(=O)Nc2cccc([C@@H]3CCCCN3)c2)c1=O` (single isomer, unassigned) [Example 41, (S)-4-amino-1-((S)-2-chloro-4-cyano-6-methylphenyl)-6-oxo-N-(3-(piperidin-2-yl)phenyl)-1,6-dihydropyrimidine-5-carboxamide or (R)-4-amino-1-((S)-2-chloro-4-cyano-6-methylphenyl)-6-oxo-N-(3-(piperidin-2-yl)phenyl)-1,6-dihydropyrimidine-5-carboxamide], the IC50 is 12.1 nM in experiment [1], 5.9 nM in experiment [2], 386 nM in experiment [3] and 605 nM in experiment [4].
Turning to `C[C@H](N)c1cncc(NC(=O)c2c(N)ncn(-c3c(Cl)cc(C#N)cc3Cl)c2=O)c1` (single isomer, unassigned) [Example 43, (S)-4-amino-N-(5-(1-aminoethyl)pyridin-3-yl)-1-(2,6-dichloro-4-cyanophenyl)-6-oxo-1,6-dihydropyrimidine-5-carboxamide or (R)-4-amino-N-(5-(1-aminoethyl)pyridin-3-yl)-1-(2,6-dichloro-4-cyanophenyl)-6-oxo-1,6-dihydropyrimidine-5-carboxamide], the IC50 in experiment [1] was 4.9 nM; in experiment [2] it was 5.4 nM; in experiment [3], 285 nM; in experiment [4], 283 nM.
The corresponding values for `COC[C@@H](N)c1cncc(NC(=O)c2c(N)ncn(-c3c(Cl)cc(C#N)cc3Cl)c2=O)c1` (single isomer, unassigned) [Example 44, (S)-4-amino-N-(5-(1-amino-2-methoxyethyl)pyridin-3-yl)-1-(2,6-dichloro-4-cyanophenyl)-6-oxo-1,6-dihydropyrimidine-5-carboxamide or (R)-4-amino-N-(5-(1-amino-2-methoxyethyl)pyridin-3-yl)-1-(2,6-dichloro-4-cyanophenyl)-6-oxo-1,6-dihydropyrimidine-5-carboxamide] are 4.7 nM, 7.6 nM, 518 nM and 382 nM.
The corresponding values for `COC[C@H](N)c1cncc(NC(=O)c2c(N)ncn(-c3c(Cl)cc(OC(F)F)cc3Cl)c2=O)c1` (single isomer, unassigned) [Example 47, (R)-4-amino-N-(5-(1-amino-2-methoxyethyl)pyridin-3-yl)-1-(2,6-dichloro-4-(difluoromethoxy)phenyl)-6-oxo-1,6-dihydropyrimidine-5-carboxamide or (S)-4-amino-N-(5-(1-amino-2-methoxyethyl)pyridin-3-yl)-1-(2,6-dichloro-4-(difluoromethoxy)phenyl)-6-oxo-1,6-dihydropyrimidine-5-carboxamide] are 3.2 nM, 2.9 nM, 174 nM and 227 nM.
The corresponding values for `COCC(N)c1cncc(NC(=O)c2c(N)ncn(-c3c(Cl)cc(Cl)cc3Cl)c2=O)c1` (single isomer, unassigned) [Example 49, (R)-4-amino-N-(5-(1-amino-2-methoxyethyl)pyridin-3-yl)-6-oxo-1-(2,4,6-trichlorophenyl)-1,6-dihydropyrimidine-5-carboxamide or (S)-4-amino-N-(5-(1-amino-2-methoxyethyl)pyridin-3-yl)-6-oxo-1-(2,4,6-trichlorophenyl)-1,6-dihydropyrimidine-5-carboxamide] are 2.5 nM, 2.8 nM, 144 nM and 161 nM.
In the case of `C[C@@H](N)c1cncc(NC(=O)c2c(N)ncn(-c3c(Cl)cc(Cl)cc3Cl)c2=O)c1` (single isomer, unassigned) [Example 50, (R)-4-amino-N-(5-(1-aminoethyl)pyridin-3-yl)-6-oxo-1-(2,4,6-trichlorophenyl)-1,6-dihydropyrimidine-5-carboxamide or (S)-4-amino-N-(5-(1-aminoethyl)pyridin-3-yl)-6-oxo-1-(2,4,6-trichlorophenyl)-1,6-dihydropyrimidine-5-carboxamide], the IC50 in experiment [1] was found to be 16.5 nM; in experiment [2], 7.4 nM; in experiment [3], 439 nM; in experiment [4], 708 nM.
Regarding `C[C@@H](N)c1cncc(NC(=O)c2c(N)ncn(-c3c(Cl)cc(OC4CC4)cc3Cl)c2=O)c1` (single isomer, unassigned) [Example 51, (R)-4-amino-N-(5-(1-aminoethyl)pyridin-3-yl)-1-(2,6-dichloro-4-cyclopropoxyphenyl)-6-oxo-1,6-dihydropyrimidine-5-carboxamide or (S)-4-amino-N-(5-(1-aminoethyl)pyridin-3-yl)-1-(2,6-dichloro-4-cyclopropoxyphenyl)-6-oxo-1,6-dihydropyrimidine-5-carboxamide], the IC50 in experiment [1] was 2.8 nM; in experiment [2], 2.2 nM; in experiment [3], 124 nM; in experiment [4], 142 nM.
The corresponding values for `COc1cc(C)c(-n2cnc(N)c(C(=O)Nc3cncc(C4CCCCCN4)c3)c2=O)c(C)c1` (single isomer, unassigned) [Example 53, (R)-4-amino-N-(5-(azepan-2-yl)pyridin-3-yl)-1-(4-methoxy-2,6-dimethylphenyl)-6-oxo-1,6-dihydropyrimidine-5-carboxamide or (S)-4-amino-N-(5-(azepan-2-yl)pyridin-3-yl)-1-(4-methoxy-2,6-dimethylphenyl)-6-oxo-1,6-dihydropyrimidine-5-carboxamide] are 12.9 nM, 6.8 nM, 356 nM and 625 nM.
The corresponding values for `C[C@@H](N)c1cncc(NC(=O)c2c(N)ncn(-c3c(Cl)cc(C(F)F)cc3Cl)c2=O)c1` (single isomer, unassigned) [Example 57, (R)-4-amino-N-(5-(1-aminoethyl)pyridin-3-yl)-1-(2,6-dichloro-4-(difluoromethyl)phenyl)-6-oxo-1,6-dihydropyrimidine-5-carboxamide or (S)-4-amino-N-(5-(1-aminoethyl)pyridin-3-yl)-1-(2,6-dichloro-4-(difluoromethyl)phenyl)-6-oxo-1,6-dihydropyrimidine-5-carboxamide] are 7.9 nM, 5.4 nM, 277 nM and 382 nM.
The corresponding values for `Nc1ncn(-c2c(Cl)cc(C(F)F)cc2Cl)c(=O)c1C(=O)Nc1cncc([C@@H]2COCCCN2)c1` (single isomer, unassigned) [Example 59, (R)-N-(5-(1,4-oxazepan-3-yl)pyridin-3-yl)-4-amino-1-(2,6-dichloro-4-(difluoromethyl)phenyl)-6-oxo-1,6-dihydropyrimidine-5-carboxamide or (S)-N-(5-(1,4-oxazepan-3-yl)pyridin-3-yl)-4-amino-1-(2,6-dichloro-4-(difluoromethyl)phenyl)-6-oxo-1,6-dihydropyrimidine-5-carboxamide] are 3.1 nM, 2.5 nM, 187 nM and 224 nM.
Consider `COCc1cc(Cl)c(-n2cnc(N)c(C(=O)Nc3cncc([C@@H](C)N)c3)c2=O)c(Cl)c1` (single isomer, unassigned) [Example 66, (R)-4-amino-N-(5-(1-aminoethyl)pyridin-3-yl)-1-(2,6-dichloro-4-(methoxymethyl)phenyl)-6-oxo-1,6-dihydropyrimidine-5-carboxamide or (S)-4-amino-N-(5-(1-aminoethyl)pyridin-3-yl)-1-(2,6-dichloro-4-(methoxymethyl)phenyl)-6-oxo-1,6-dihydropyrimidine-5-carboxamide], for which the IC50 is 6 nM in experiment [1], 2.9 nM in experiment [2], 206 nM in experiment [3] and 349 nM in experiment [4].
